Here are results for one compound from patent US12496298B2, “Natural killer cells” (Imperial College Innovations Limited, priority 2017, dated 2025).

Series [1] relates to Eomes. Briefly: RT-qPCR relative expression of Eomes in cultured HPCs. Format: cell-based, mouse. The note with it: 5 μM added Day 2, harvested Day 4. As for the experimental part: FIG. 8: HPCs were cultured with or without 5 μM SR8278 added on Day 2. At Day 3, 4 and 5, cells were harvested in order to quantify their relative […] by RT-qPCR. The graphs show relative expression of (A) E4bp4, (B) Id2 and (C) Eomes normalized to the housekeeping gene, Hprt.
HPCs isolated from a WT mouse were cultured as previously (FIG. 2) but the cells were harvested and analysed using RT-qPCR on Day 3, 4 and 5. The relative expression of the E4bp4, Id2 and Eomes genes was compared to the housekeeping gene, Hprt. At Day 4, E4bp4, Id2 and Eomes expression was higher in SR8278 treated samples when compared to the ‘No drug’ control (FIG. 8). The increase in E4bp4 expression disappeared at Day 5 but the increase of Id2 expression remained (FIG. 8B). The upregulation of E4bp4 and its downstream targets happens in a matter of hours and only stays high for a defined period of time.
RNA was extracted using Qiagen RNeasy Micro Kit according to the manufacture's protocol (Qiagen). Centrifugation was done at 8000 g for 15 seconds and the flow through discarded. Briefly, 350 μl of Buffer RLT+10% β-Mercaptoethanol were added to the harvested cells. […] The concentration of RNA in each sample was measured using Nanodrop, and all samples were diluted to the same working concentration. […]
(In qPCR the cycle at which signal appears reflects the starting amount.)

In series [2] the test system is Human CD34+ cells. Nature of the series: Toxicity to human CD34+ cells in NK cell culture. Format: cell-based. The text has this: The hypothesis that SR8278 increases NK cells production would not have any potential therapeutic value if it was not also true for human NK cell production. Therefore, the effect of SR8278 on human NK cell production from human HPCs was examined. Human HPCs were obtained as the CD34^+ population purified from umbilical cord blood from collaborators at the Anthony Nolan Research Institute, London. Human NK cell development goes through a similar developmental pathway to mouse NK cell development. […]
CD34^+ umbilical cord blood progenitor cells were provided by Anthony Nolan Research Institute, University College London. […] Cells were thawed, counted and then plated on EL08.1D2 plates prepared previously at a concentration of 1000 cells/well in human NK cells differentiation medium (Alpha-MEM plus 20% Human AB serum (Invitrogen), 50 μM β-Mercaptoethanol and 1% P/S along with 5 ng/ml human-IL-3 (Peprotech), 20 ng/ml human-IL-7 (Peprotech), 10 ng/ml human-Flt3-L (Peprotech), 20 ng/ml human-SCF (Peprotech) and 10 ng/ml human-IL-15 (Peprotech). Note that human-IL-3 is only needed for the first week of culture. Cells were left in the culture at 37° C., 5% CO2 for 14 or 16 days with a change of human NK differentiation medium at day 7 and 12.

On to `CCOC(=O)C1Cc2ccccc2CN1C(=O)c1ccc(SC)s1` (stereo not drawn) [SR8278, 1,2,3,4-Tetrahydro-2-[[5-(methylthio)-2-thienyl]carbonyl]-3-isoquinolinecarboxylic acid ethyl ester], for which the “Eomes expression relative to Hprt, compared to 'No drug' control” value in series [1] was “higher”. Besides, the results for the “toxicity to human CD34+ cells” value in series [2] (5 μM) and in series [2] (10 μM) were “not toxic” and “completely toxic”, respectively.
